Assays:
[1] = system: Staphylococcus aureus (4379); experiment: In vitro antibacterial activity, standard agar dilution (MIC); assay type: cell-based; conditions: Mueller-Hinton agar, about 18 hours, approximately 35° C.
Method: (§1) The in vitro antibacterial activity of LL-14E605β and O-methyl-LL-14E605β is determined against a spectrum of gram positive and gram-negative bacteria by a standard agar dilution method. Mueller-Hinton agar containing two fold decreasing concentrations of the antibiotics is poured into petri plates. The agar surfaces are inoculated with 1 to 5×10^4 colony forming units of bacteria by means of a Steer's replicating device. The lowest concentration of the LL-14E605 antibiotics that inhibits growth of a bacterial strain after about 18 hours of incubation at approximately 35° C. is recorded as the minimal inhibitory concentration (MIC) for that strain.

[2] = system: Pseudomanas aeruginosa (ATCC 27853); experiment: as above; assay type: cell-based; conditions: Mueller-Hinton agar, about 18 hours, approximately 35° C.
Method: as §1

[3] = system: Enterococcus faecium (ID-4133); experiment: as above; assay type: cell-based; conditions: Mueller-Hinton agar, about 18 hours, approximately 35° C.
Method: as §1

[4] = system: Enterococcus faecalis (ID-1829); experiment: as above; assay type: cell-based; conditions: Mueller-Hinton agar, about 18 hours, approximately 35° C.
Method: as §1

[5] = system: Enterococcus faecalis (12201); experiment: as above; assay type: cell-based; conditions: Mueller-Hinton agar, about 18 hours, approximately 35° C.
Method: as §1

[6] = system: Staphylococcus aureus (ID-2727); experiment: as above; assay type: cell-based; conditions: Mueller-Hinton agar, about 18 hours, approximately 35° C.
Method: as §1

[7] = system: Bacillus cereus (Bacto); experiment: as above; assay type: cell-based; conditions: Mueller-Hinton agar, about 18 hours, approximately 35° C.
Method: as §1

[8] = system: Staphylococcus, coagluase negative (ID-3941); experiment: as above; assay type: cell-based; conditions: Mueller-Hinton agar, about 18 hours, approximately 35° C.
Method: as §1

[9] = system: Enterococcus avium (ID-3953); experiment: as above; assay type: cell-based; conditions: Mueller-Hinton agar, about 18 hours, approximately 35° C.
Method: as §1

[10] = system: Staphylococcus hemolyticus (ID 4061); experiment: as above; assay type: cell-based; conditions: Mueller-Hinton agar, about 18 hours, approximately 35° C.
Method: as §1

[11] = system: Staphylococcus, coagluase negative (ID-3276); experiment: as above; assay type: cell-based; conditions: Mueller-Hinton agar, about 18 hours, approximately 35° C.
Method: as §1

[12] = system: Staphylococcus aureus (SMITH); experiment: as above; assay type: cell-based; conditions: Mueller-Hinton agar, about 18 hours, approximately 35° C.
Method: as §1

[13] = system: Morganella morganii (VGH 84-11); experiment: as above; assay type: cell-based; conditions: Mueller-Hinton agar, about 18 hours, approximately 35° C.
Method: as §1

[14] = system: Enterococcus faecium (12202); experiment: as above; assay type: cell-based; conditions: Mueller-Hinton agar, about 18 hours, approximately 35° C.
Method: as §1

[15] = system: Staphylococcus aureus (ID-2371); experiment: as above; assay type: cell-based; conditions: Mueller-Hinton agar, about 18 hours, approximately 35° C.
Method: as §1

[16] = system: Enterococcus faecalis (ATCC 29212); experiment: as above; assay type: cell-based; conditions: Mueller-Hinton agar, about 18 hours, approximately 35° C.
Method: as §1

[17] = system: Staphylococcus aureus (ATCC 29213); experiment: as above; assay type: cell-based; conditions: Mueller-Hinton agar, about 18 hours, approximately 35° C.
Method: as §1

[18] = system: Enterococcus faecium (ID-3301); experiment: as above; assay type: cell-based; conditions: Mueller-Hinton agar, about 18 hours, approximately 35° C.
Method: as §1

[19] = system: Staphylococcus aureus (NEMC-89-4); experiment: as above; assay type: cell-based; conditions: Mueller-Hinton agar, about 18 hours, approximately 35° C.
Method: as §1

[20] = system: Micrococcus luteus (ATCC 9341); experiment: as above; assay type: cell-based; conditions: Mueller-Hinton agar, about 18 hours, approximately 35° C.
Method: as §1

[21] = system: Enterococcus faecalis (ID-4168); experiment: as above; assay type: cell-based; conditions: Mueller-Hinton agar, about 18 hours, approximately 35° C.
Method: as §1

[22] = system: Staphylococcus, coagiuase negative (ID-4615); experiment: as above; assay type: cell-based; conditions: Mueller-Hinton agar, about 18 hours, approximately 35° C.
Method: as §1

[23] = system: Staphylococcus, coagluase negative (ID-3135); experiment: as above; assay type: cell-based; conditions: Mueller-Hinton agar, about 18 hours, approximately 35° C.
Method: as §1

[24] = system: Staphylococcus aureus (ID-3105); experiment: as above; assay type: cell-based; conditions: Mueller-Hinton agar, about 18 hours, approximately 35° C.
Method: as §1

[25] = system: Escherichia coli (ATCC 25922); experiment: as above; assay type: cell-based; conditions: Mueller-Hinton agar, about 18 hours, approximately 35° C.
Method: as §1

[26] = system: Escherichia coli (J2445); experiment: as above; assay type: cell-based; conditions: Mueller-Hinton agar, about 18 hours, approximately 35° C.
Method: as §1

[27] = system: Staphylococcus, coagluase negative (ID-3120); experiment: as above; assay type: cell-based; conditions: Mueller-Hinton agar, about 18 hours, approximately 35° C.
Method: as §1

[28] = system: Escherichia coli (J2175); experiment: as above; assay type: cell-based; conditions: Mueller-Hinton agar, about 18 hours, approximately 35° C.
Method: as §1

[29] = system: Enterococcus faecalis (ID-2131); experiment: as above; assay type: cell-based; conditions: Mueller-Hinton agar, about 18 hours, approximately 35° C.
Method: as §1

[30] = Relative activity of the components of the LL-14E605 complex; conditions: listed as LL-14E605β

## COC(C)=C1NC(=O)C(C(C)O)NC(=O)c2csc(n2)-c2cc(OC)c(-c3nc(C(N)=O)cs3)nc2-c2csc(n2)C2CSC(=O)c3[nH]c4cccc5c4c3COC(C(OC3CC(C)(O)C(N(C)C)C(C)O3)C(=O)OC5)C(NC(=O)c3csc1n3)c1nc(cs1)C(=O)N2 [O-methyl-L-14E605beta]
[1]
  Minimal Inhibitory Concentration (MIC): 0.25 µg/mL
[2]
  Minimal Inhibitory Concentration (MIC): > 32 µg/mL
[3]
  Minimal Inhibitory Concentration (MIC): 8 µg/mL
[4]
  Minimal Inhibitory Concentration (MIC): 8 µg/mL
[5]
  Minimal Inhibitory Concentration (MIC): 4 µg/mL
[6]
  Minimal Inhibitory Concentration (MIC): 0.25 µg/mL
[7]
  Minimal Inhibitory Concentration (MIC): 0.5 µg/mL
[8]
  Minimal Inhibitory Concentration (MIC): 4 µg/mL
[9]
  Minimal Inhibitory Concentration (MIC): 8 µg/mL
[10]
  Minimal Inhibitory Concentration (MIC): 1 µg/mL
[11]
  Minimal Inhibitory Concentration (MIC): 0.5 µg/mL
[12]
  Minimal Inhibitory Concentration (MIC): 0.25 µg/mL
[13]
  Minimal Inhibitory Concentration (MIC): > 32 µg/mL
[14]
  Minimal Inhibitory Concentration (MIC): 8 µg/mL
[15]
  Minimal Inhibitory Concentration (MIC): 0.5 µg/mL
[16]
  Minimal Inhibitory Concentration (MIC): 8 µg/mL
[17]
  Minimal Inhibitory Concentration (MIC): 0.25 µg/mL
[18]
  Minimal Inhibitory Concentration (MIC): 8 µg/mL
[19]
  Minimal Inhibitory Concentration (MIC): 0.5 µg/mL
[20]
  Minimal Inhibitory Concentration (MIC): 0.5 µg/mL
[21]
  Minimal Inhibitory Concentration (MIC): 8 µg/mL
[22]
  Minimal Inhibitory Concentration (MIC): 0.25 µg/mL
[23]
  Minimal Inhibitory Concentration (MIC): 1 µg/mL
[24]
  Minimal Inhibitory Concentration (MIC): 0.25 µg/mL
[25]
  Minimal Inhibitory Concentration (MIC): > 32 µg/mL
[26]
  Minimal Inhibitory Concentration (MIC): > 32 µg/mL
[27]
  Minimal Inhibitory Concentration (MIC): 1 µg/mL
[28]
  Minimal Inhibitory Concentration (MIC): > 32 µg/mL
[29]
  Minimal Inhibitory Concentration (MIC): 4 µg/mL

## COC(C)=C1NC(=O)C(C(C)O)NC(=O)c2csc(n2)-c2cc(O)c(-c3nc(C(N)=O)cs3)nc2-c2csc(n2)C2CSC(=O)c3[nH]c4cccc5c4c3COC(C(OC3CC(C)(O)C(N(C)C)C(C)O3)C(=O)OC5)C(NC(=O)c3csc1n3)c1nc(cs1)C(=O)N2 (stereo not drawn) [LL-14E605-beta]
[30]
  activity relative to the other components of the LL-14E605 complex: most active component of the LL-14E605 complex
[1]
  Minimal Inhibitory Concentration (MIC): 0.015 µg/mL
[2]
  Minimal Inhibitory Concentration (MIC): > 64 µg/mL
[3]
  Minimal Inhibitory Concentration (MIC): ≤ 0.005 µg/mL
[4]
  Minimal Inhibitory Concentration (MIC): 0.002 µg/mL
[5]
  Minimal Inhibitory Concentration (MIC): 0.015 µg/mL
[6]
  Minimal Inhibitory Concentration (MIC): 0.008 µg/mL
[7]
  Minimal Inhibitory Concentration (MIC): 0.06 µg/mL
[8]
  Minimal Inhibitory Concentration (MIC): 0.06 µg/mL
[9]
  Minimal Inhibitory Concentration (MIC): 0.002 µg/mL
[10]
  Minimal Inhibitory Concentration (MIC): 0.03 µg/mL
[11]
  Minimal Inhibitory Concentration (MIC): 0.008 µg/mL
[12]
  Minimal Inhibitory Concentration (MIC): 0.008 µg/mL
[13]
  Minimal Inhibitory Concentration (MIC): > 64 µg/mL
[14]
  Minimal Inhibitory Concentration (MIC): 0.004 µg/mL
[15]
  Minimal Inhibitory Concentration (MIC): 0.015 µg/mL
[16]
  Minimal Inhibitory Concentration (MIC): 0.015 µg/mL
[17]
  Minimal Inhibitory Concentration (MIC): 0.015 µg/mL
[18]
  Minimal Inhibitory Concentration (MIC): 0.015 µg/mL
[19]
  Minimal Inhibitory Concentration (MIC): 0.015 µg/mL
[20]
  Minimal Inhibitory Concentration (MIC): 0.002 µg/mL
[21]
  Minimal Inhibitory Concentration (MIC): 0.015 µg/mL
[22]
  Minimal Inhibitory Concentration (MIC): 0.015 µg/mL
[23]
  Minimal Inhibitory Concentration (MIC): 0.03 µg/mL
[24]
  Minimal Inhibitory Concentration (MIC): 0.015 µg/mL
[25]
  Minimal Inhibitory Concentration (MIC): > 64 µg/mL
[26]
  Minimal Inhibitory Concentration (MIC): 0.06 µg/mL
[27]
  Minimal Inhibitory Concentration (MIC): 0.06 µg/mL
[28]
  Minimal Inhibitory Concentration (MIC): > 64 µg/mL
[29]
  Minimal Inhibitory Concentration (MIC): 0.015 µg/mL

Source: patent US5451581A, “Antibiotic LL-14E605β and O-methyl-LL-14E605β” (priority 1993, dated 1995)
